Laboratory results published in article PMC4209961 (Journal of nuclear medicine : official publication, Society …, 2013).

System: U87MG tumors
Test: Tumor growth
Assay type: in vivo, athymic nude mice
Conditions: two doses of doxorubicin 5 mg/kg/dose two days apart, tail vein; at day 5 after the treatment started, P < 0.05

COc1cccc2c1C(=O)c1c(O)c3c(c(O)c1C2=O)C[C@@](O)(C(=O)CO)C[C@@H]3O[C@H]1C[C@H](N)[C@H](O)[C@H](C)O1 [doxorubicin]
tumor growth response: significant growth inhibition
